Test results from patent US20140227335A1 (priority 2012, published 2014).

Columns and labels:
VSV-Gpp, HIVpp = assay type: cell-based, HIV pseudotyped lentiviruses
HIV-1 98IN022 = experiment: Anti-HIV efficacy in fresh human PBMC (reverse transcriptase activity); assay type: cell-based; settings: Human immunodeficiency virus 1, PBMC, 168 h; 98IN022 (clade C, R5); PBMCs, MOI = 0.1, 7 days
[1] = test system: Lactobacillus jensenii ATCC 25258; experiment: Lactobacillus toxicity testing (CFU); assay type: cell-based
Protocol: (§1) Reference strains of L. crispatus and L. jensenii were obtained from the ATCC (Manassas, Va.) and cultured on Columbia blood agar plates at 35° C. in air enriched with 6% CO2. Bacterial suspensions were prepared in saline or ACES buffer to a density of 2 McFarland units (˜2×10^8 bacteria/mL), and exposed to PD (300 μM) or DMSO (10%) for 30 minutes at 37° C. After incubation, the cells were serially diluted in ACES buffer, pH 7.0 (Sigma-Aldrich, St. Louis, Mo.) and plated on blood agar plates to quantify colony forming unit per mL (CFU/mL)
(§2) Different bacterial strains were incubated with 300 μM PD or solvent DMSO-containing control media at 37° C. for 30 min and plated on blood agar plates to estimate their corresponding colony forming units per ml (CFU/ml). Less than 1 log difference between control and test CFU is considered non-toxic 17.

[2] = test system: Lactobacillus crispatus ATCC 33197; experiment: Lactobacillus toxicity testing (CFU); assay type: cell-based
Protocol: as §1, §2

[3] = test system: Lactobacillus jensenii LBP 28Ab; experiment: Lactobacillus toxicity testing (CFU); assay type: cell-based
Protocol: as §1, §2

HIV-1 93IN017 = experiment: HIV infectivity assay in TZM-bl cells; assay type: cell-based; settings: 93IN017 (clade C, X4); for IC50: Human immunodeficiency virus 1, TZM-bl
HIV-1 92UG005 = experiment: HIV infectivity assay in TZM-bl cells; assay type: cell-based; settings: 92UG005 (clade D, R5); for IC50: Human immunodeficiency virus 1, TZM-bl
HCVcc = assay type: cell-based, HCV
[4] = Lactobacillus toxicity testing (all strains, summary); assay type: cell-based; settings: Lactobacillus (L. crispatus and L. jensenii), suspensions of vaginal commensal Lactobacillus strains; vaginal commensal bacteria Lactobacilli
Protocol: as §1, §2

Lactobacilli = experiment: as above; assay type: cell-based; settings: 300 μM PD, 37° C., 30 min
Protocol: as §1, §2

HIV-1 93TH053 = experiment: HIV infectivity assay in TZM-bl cells; assay type: cell-based; settings: 93TH053 (clade E, X4); for IC50: Human immunodeficiency virus 1, TZM-bl
HIV-1 93BR029 = experiment: microbe, parasite or virus in culture; assay type: cell-based; settings: 93BR029 (clade F, R5); for IC50: Human immunodeficiency virus 1, TZM-bl
HIV-1 92HT599 = experiment: Anti-HIV efficacy in fresh human PBMC (reverse transcriptase activity); assay type: cell-based; settings: Human immunodeficiency virus 1, PBMC, 168 h; 92HT599 (clade B, X4); PBMCs, MOI = 0.1, 7 days
[5] = Primary cells toxicity testing (LDH); assay type: cell-based; settings: human, primary CD4+ T-lymphocytes, macrophages and dendritic cells, up to 14 days
Protocol: Increasing concentrations were incubated with primary CD4^+ T-lymphocytes, macrophages and dendritic cells at 37° C. and the amounts of lactate dehydrogenase (LDH) present in the culture media were quantified after 0, 7 and 14 days. Error bars represent the standard deviation from two independent experiments.
Primary cells were seeded at 6×10^3 cells/well in flat bottom 96-well plates in triplicates in the presence of increasing concentrations of PD. We used the permeabilization agent saponin (0.1%) as positive control. After 0, 7 and 14 days, the amounts of lactate dehydrogenase (LDH) in the cell culture media were quantified using the LDH Cytotoxicity Assay Kit (Cayman Chemical, Ann Arbor, Mich.).
Cell death can occur either by apoptosis or by necrosis. Necrosis is accompanied by mitochondrial swelling and increased plasma membrane permeability, whereas apoptosis involves an articulated breakdown of the cell into membrane-bound apoptotic bodies. Lactate dehydrogenase (LDH) is a soluble cytosolic enzyme that is released into the culture medium following loss of membrane integrity resulting from either apoptosis or necrosis. LDH activity, therefore, can be used as an indicator of cell membrane integrity and serves as a general means to assess cytotoxicity resulting from chemical compounds or environmental toxic factors. […]

[6] = Compound cytotoxicity in uninfected PBMC (MTS assay); settings: human
[7] = test system: freshly activated human PBMC; experiment: as above; settings: freshly activated PBMCs, uninfected plates, MTS assay, 7 days
HIV-1 92UG001 = experiment: Anti-HIV efficacy in fresh human PBMC (reverse transcriptase activity); assay type: cell-based; settings: Human immunodeficiency virus 1, PBMC, 168 h; 92UG001 (clade D, X4/R5); PBMCs, MOI = 0.1, 7 days
[8] = 300 μM PD, less than 1 log difference is considered non-toxic

## N=C1Sc2ccccc2C2=NCCCN12 [PD, PD 404,182]
VSV-Gpp, HIVpp
  increase in IC50: 50-80 fold
HIV-1 98IN022
  IC50: 400 nM
  IC90: 1480 nM
[1]; [8]
  Log(Control) − Log(PD): −0.122
[1]; 30 min, 37° C.
  CFU of Lactobacillus treated with 300 μM PD: 7,533,333 CFU
[2]; [8]
  Log(Control) − Log(PD): −0.019
[2]; 30 min, 37° C.
  CFU of Lactobacillus treated with 300 μM PD: 7,260,000 CFU
[3]; [8]
  Log(Control) − Log(PD): −0.021
[3]; 30 min, 37° C.
  CFU of Lactobacillus treated with 300 μM PD: 10,033,333 CFU
HIV-1 93IN017; PD in DMEM + 10% FBS
  IC50 (DMEM; IC90 per footnote): 1900 ± 200 nM
  IC50: 400 nM
HIV-1 93IN017; PD in cervical fluids
  IC50 (Cervical Fluid; IC90 per footnote): 2400 ± 200 nM
  IC50: 700 nM
HIV-1 93IN017; PD in seminal plasma
  IC50 (Seminal Plasma; IC90 per footnote): 2090 ± 190 nM
  IC50: 450 nM
HIV-1 92UG005; PD in DMEM + 10% FBS
  IC50 (DMEM; IC90 per footnote): 5300 ± 400 nM
  IC50: 1260 nM
HIV-1 92UG005; PD in cervical fluids
  IC50 (Cervical Fluid; IC90 per footnote): 5700 ± 300 nM
  IC50: 1390 nM
HIV-1 92UG005; PD in seminal plasma
  IC50 (Seminal Plasma; IC90 per footnote): 5570 ± 440 nM
  IC50: 1320 nM
HCVcc
  inhibition of HCVcc infectivity: > 10 fold
[4]
  CC50 at 30 min: > 300000 nM
Lactobacilli
  effect on Lactobacillus strains: no adverse effect on all strains of bacteria tested
HIV-1 93TH053; PD in DMEM + 10% FBS
  IC90: 5300 ± 300 nM
  IC50: 1400 nM
HIV-1 93TH053; PD in cervical fluids
  IC90: 6400 ± 400 nM
  IC50: 1800 nM
HIV-1 93TH053; PD in seminal plasma
  IC90: 6650 ± 480 nM
  IC50: 1670 nM
VSV-Gpp
  activity loss in cervical fluid: no activity loss
HIV-1 93BR029; PD in DMEM + 10% FBS
  IC90: 3500 ± 200 nM
  IC50: 700 nM
HIV-1 93BR029; PD in cervical fluids
  IC90: 4600 ± 300 nM
  IC50: 1200 nM
HIV-1 93BR029; PD in seminal plasma
  IC90: 3720 ± 260 nM
  IC50: 850 nM
HIV-1 92HT599
  IC50: 550 nM
  IC90: 1920 nM
[5]
  CC50 at 14 days: > 300000 nM
[6]
  cytotoxicity at 7 days, 200 μM: 48%
[6]; CC50, freshly activated PBMCs, uninfected plates, MTS assay, 7 days
  CC50 at 7 days: ~200000 nM
[7]
  CC50: > 200000 nM
HIV-1 92UG001
  IC50: 1110 nM
  IC90: 1890 nM
